# Results published in patent US20250163104A1, “MACROCYCLIC IMMUNOMODULATORS” (priority 2021, published 2025).
# Where a SMILES comes first, the peptide text is derived from it. Bridges are numbered along the chain shown (N, C = ends). [ ]: non-standard residue; d: D form. The star is where a group is joined. Phe(4-COOH) = N[C@@H](Cc1ccc(C(=O)O)cc1)C(=O)O; Bip = N[C@@H](Cc1ccc(-c2ccccc2)cc1)C(=O)O; Phe(4-Cl) = N[C@@H](Cc1ccc(Cl)cc1)C(=O)O; Phe(3-F) = N[C@@H](Cc1cccc(F)c1)C(=O)O; Phe(3-Me) = Cc1cccc(C[C@H](N)C(=O)O)c1; 4Pal = N[C@@H](Cc1ccncc1)C(=O)O; Cha = N[C@@H](CC1CCCCC1)C(=O)O; Cit = NC(=O)NCCC[C@H](N)C(=O)O; dCha = N[C@H](CC1CCCCC1)C(=O)O; Carboxymethyl = O=C(O)C*; Orn = NCCC[C@H](N)C(=O)O; Dab = NCC[C@H](N)C(=O)O; Dap = NC[C@H](N)C(=O)O
# Molecular target: T1, human PD-1 / PD-L1-Ig binding on Jurkat cell line over-expressing human PD-1 (Jurkat-PD-1) (Homo sapiens, UniProt Q15116)
# T1 construct: expressed in transfected cells; host or cells: Jurkat
# Test: Jurkat-PD-1 Cell Binding High-Content Screening Assay (CBA)
# Type: cell-based
# Details: Jurkat-PD-1 cells, PE-labeled PD-L1-Ig 20 nM final; read-out: Jurkat HPD1_PDL1 IC50
# Outline: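 Binding of fluorescent PD-L1-Ig (phycoerythrin linked via the Ig tag, 20 nM final) to PD-1-overexpressing Jurkat cells was imaged after a 2 h, 37° C compound pretreatment and 1 hour ligand incubation.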
# T1 sequence (Q15116 25-288): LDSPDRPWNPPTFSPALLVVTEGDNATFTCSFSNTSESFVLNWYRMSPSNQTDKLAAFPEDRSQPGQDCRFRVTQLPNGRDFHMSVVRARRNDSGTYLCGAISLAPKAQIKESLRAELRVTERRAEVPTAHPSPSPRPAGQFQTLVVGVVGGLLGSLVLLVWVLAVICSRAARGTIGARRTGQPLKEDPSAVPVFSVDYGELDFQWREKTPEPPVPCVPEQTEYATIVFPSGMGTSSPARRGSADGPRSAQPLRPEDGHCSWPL
row,IC50 [nM],SMILES
1,140,CC(C)C[C@@H]1NC(=O)[C@H](CCN)NC(=O)[C@@H](CC(C)C)NC(=O)[C@H](C)NC(=O)[C@H](CCCNC(=N)N)NC(=O)[C@H](Cc2ccc(-c3ccccc3)cc2)NC(=O)[C@H](C(C)C)NC(=O)[C@H](Cc2c[nH]c3ccccc23)NC(=O)[C@H](CC(=O)O)NC(=O)[C@H](Cc2ccc(O)cc2)NC(=O)[C@H](CC(N)=O)NC(=O)CSC[C@@H](C(=O)N[C@@H](C)C(N)=O)NC(=O)[C@H]([C@@H](C)O)NC(=O)[C@H](C(C)C)NC1=O [Compound 1001] ({CH2CO}-NYDWV[Bip]RA[dL][Dab]LVTCA-NH2; thioether N-14)
2,11.3,Cc1cccc(C[C@@H]2NC(=O)[C@H](CC(=O)O)NC(=O)[C@H](Cc3ccc(OCC(=O)O)cc3)NC(=O)[C@H](CN)NC(=O)CSC[C@@H](C(N)=O)NC(=O)[C@H](CC(N)=O)NC(=O)[C@H](C(C)C)NC(=O)[C@H](CC3CCCCC3)NC(=O)[C@H](CCN)NC(=O)[C@@H](CC(C)C)NC(=O)[C@H](CCCN)NC(=O)[C@H](Cc3ccc(OCC(=O)O)cc3)NC(=O)[C@H](Cc3ccc(-c4ccccc4)cc3)NC(=O)[C@H](Cc3ccc(OCC(=O)O)cc3)NC2=O)c1 [Compound 1780] ({CH2CO}-[Dap]Y(Carboxymethyl)D[Phe(3-Me)]Y(Carboxymethyl)[Bip]Y(Carboxymethyl)[Orn][dL][Dab][Cha]VNC-NH2; thioether N-14)
3,26,Cc1cccc(C[C@@H]2NC(=O)[C@H](CC(=O)O)NC(=O)[C@H](Cc3ccc(OCC(=O)O)cc3)NC(=O)[C@H](Cc3cccnc3)NC(=O)CSC[C@@H](C(=O)N[C@@H](C)C(N)=O)NC(=O)[C@H]([C@@H](C)O)NC(=O)[C@H](C(C)C)NC(=O)[C@H](CC3CCCCC3)NC(=O)[C@H](Cc3cnc[nH]3)NC(=O)[C@@H](CC(C)C)NC(=O)[C@H](CCCN)NC(=O)[C@H](C(C)C)NC(=O)[C@H](Cc3ccc(-c4ccccc4)cc3)NC(=O)[C@H](C(C)C)NC2=O)c1 [Compound 1587]
4,8.1,CC[C@H](C)[C@@H]1NC(=O)[C@H](Cc2ccc(-c3ccccc3)cc2)NC(=O)[C@H](C(C)C)NC(=O)[C@H](Cc2c[nH]c3ccccc23)NC(=O)[C@H](CC(=O)O)NC(=O)[C@H](Cc2ccc(O)cc2)NC(=O)[C@H](CN)NC(=O)CSC[C@@H](C(=O)N[C@@H](C)C(N)=O)NC(=O)[C@H]([C@@H](C)O)NC(=O)[C@H](C(C)C)NC(=O)[C@H](CC2CCCCC2)NC(=O)[C@H](CCN)NC(=O)[C@@H](CC(C)C)NC(=O)[C@H](CCCN)NC1=O [Compound 1159]
5,16.7,CC(C)[C@@H]1NC(=O)[C@H](Cc2c[nH]c3ccccc23)NC(=O)[C@H](CC(=O)O)NC(=O)[C@H](Cc2ccc(OCC(=O)O)cc2)NC(=O)[C@H](Cc2ccncc2)NC(=O)CSC[C@@H](C(=O)N[C@@H](C)C(N)=O)NC(=O)[C@H]([C@@H](C)O)NC(=O)[C@H](C(C)C)NC(=O)[C@H](CC2CCCCC2)NC(=O)[C@H](CCN)NC(=O)[C@@H](CC2CCCCC2)NC(=O)[C@H](CCCN)NC(=O)[C@H](CCCNC(N)=O)NC(=O)[C@H](Cc2ccc(-c3ccccc3)cc2)NC1=O [Compound 1644] ({CH2CO}-[4Pal]Y(Carboxymethyl)DWV[Bip][Cit][Orn][dCha][Dab][Cha]VTCA-NH2; thioether N-14)
6,128,CC(C)C[C@H]1NC(=O)[C@H](CCCN)NC(=O)[C@H](CCC(=O)O)NC(=O)[C@H](Cc2ccc(-c3ccccc3)cc2)NC(=O)[C@H](C(C)C)NC(=O)[C@H](Cc2c[nH]c3ccccc23)NC(=O)[C@H](CC(=O)O)NC(=O)[C@H](Cc2ccc(OCC(=O)O)cc2)NC(=O)[C@H](CN)NC(=O)CSC[C@@H](C(=O)N[C@@H](C)C(N)=O)NC(=O)[C@H]([C@@H](C)O)NC(=O)[C@H](C(C)C)NC(=O)[C@H](Cc2ccc(Cl)cc2)NC(=O)[C@H](CCN)NC1=O [Compound 1472] ({CH2CO}-[Dap]Y(Carboxymethyl)DWV[Bip]E[Orn][dL][Dab][Phe(4-Cl)]VTCA-NH2; thioether N-14)
7,6.4,CC(C)C[C@H]1NC(=O)[C@H](CCCN)NC(=O)[C@H](C(C)C)NC(=O)[C@H](Cc2ccc(-c3ccccc3)cc2)NC(=O)[C@H](C(C)C)NC(=O)[C@H](Cc2c[nH]c3ccccc23)NC(=O)[C@H](CC(=O)O)NC(=O)[C@H](Cc2ccc(OCC(=O)O)cc2)NC(=O)[C@H](CN)NC(=O)CSC[C@@H](C(=O)N[C@@H](C)C(N)=O)NC(=O)[C@H](CCCNC(=N)N)NC(=O)[C@H](C(C)C)NC(=O)[C@H](CC2CCCCC2)NC(=O)[C@H](CCN)NC1=O [Compound 1747] ({CH2CO}-[Dap]Y(Carboxymethyl)DWV[Bip]V[Orn][dL][Dab][Cha]VRCA-NH2; thioether N-14)
8,22.2,CC(C)C[C@H]1NC(=O)[C@H](CCCN)NC(=O)[C@H](CCCNC(N)=O)NC(=O)[C@H](Cc2ccc(-c3ccccc3)cc2)NC(=O)[C@H](C(C)C)NC(=O)[C@H](Cc2c[nH]c3ccccc23)NC(=O)[C@H](CC(=O)O)NC(=O)[C@H](Cc2ccc(OCC(=O)O)cc2)NC(=O)[C@H](Cc2ccc(OCC(=O)O)cc2)NC(=O)CSC[C@@H](C(=O)N[C@@H](C)C(N)=O)NC(=O)[C@H]([C@@H](C)O)NC(=O)[C@H](C(C)C)NC(=O)[C@H](Cc2cccc(F)c2)NC(=O)[C@H](CCN)NC1=O [Compound 1676] ({CH2CO}-Y(Carboxymethyl)Y(Carboxymethyl)DWV[Bip][Cit][Orn][dL][Dab][Phe(3-F)]VTCA-NH2; thioether N-14)
9,16.4,Cc1cccc(C[C@@H]2NC(=O)[C@H](CC(=O)O)NC(=O)[C@H](Cc3ccc(C(=O)O)cc3)NC(=O)[C@H](Cc3ccncc3)NC(=O)CSC[C@@H](C(=O)N[C@@H](CC(N)=O)C(N)=O)NC(=O)[C@H](CO)NC(=O)[C@H](C(C)C)NC(=O)[C@H](CC3CCCCC3)NC(=O)[C@H](CCN)NC(=O)[C@@H](CC(C)C)NC(=O)[C@H](CCCN)NC(=O)[C@H](Cc3ccc(O)cc3)NC(=O)[C@H](Cc3ccc(-c4ccccc4)cc3)NC(=O)[C@H](C(C)C)NC2=O)c1 [Compound 2289] ({CH2CO}-[4Pal][Phe(4-COOH)]D[Phe(3-Me)]V[Bip]Y[Orn][dL][Dab][Cha]VSCN-NH2; thioether N-14)
10,4.1,Cc1cccc(C[C@@H]2NC(=O)[C@H](CC(=O)O)NC(=O)[C@H](Cc3ccc(C(=O)O)cc3)NC(=O)[C@H](Cc3ccncc3)NC(=O)CSC[C@@H](C(=O)N[C@@H](C)C(N)=O)NC(=O)[C@H]([C@@H](C)O)NC(=O)[C@H](C(C)C)NC(=O)[C@H](CC(C)C)NC(=O)[C@H](CCN)NC(=O)[C@@H](CC(C)C)NC(=O)[C@H](CCCN)NC(=O)[C@H](CCCNC(N)=O)NC(=O)[C@H](Cc3ccc(-c4ccccc4)cc3)NC(=O)[C@H](C(C)C)NC2=O)c1 [Compound 1178] ({CH2CO}-[4Pal][Phe(4-COOH)]D[Phe(3-Me)]V[Bip][Cit][Orn][dL][Dab]LVTCA-NH2; thioether N-14)
11,8.9,CC(C)C[C@@H]1NC(=O)[C@H](Cc2c[nH]c3ccccc23)NC(=O)[C@H](CC(=O)O)NC(=O)[C@H](Cc2ccncc2)NC(=O)[C@H](CN)NC(=O)CSC[C@@H](C(=O)NCC(N)=O)NC(=O)[C@H](CO)NC(=O)[C@H](C(C)C)NC(=O)[C@H](CC(C)C)NC(=O)[C@H](CC(N)=O)NC(=O)[C@@H](CC(C)C)NC(=O)[C@H](CCN)NC(=O)[C@H](C(C)C)NC(=O)[C@H](Cc2ccc(-c3ccccc3)cc2)NC1=O [Compound 1281] ({CH2CO}-[Dap][4Pal]DWL[Bip]V[Dab][dL]NLVSCG-NH2; thioether N-14)
